For assay [1], the target named is Recombinant full-length human IDO1 (Homo sapiens (Human), UniProt P14902). The experiment in a line: IDO1 enzymatic assay (IDO inhibitory activity). Format: biochemical. The note with it: 2 nM enzyme, 5 μM L-tryptophan, pH6.5, 30 min pre-incubation, NFK quantified by LCMS; mean values if measured multiple times; read-out: hIDO activity (IC50 in nM). Summed up:
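N-His-tagged enzyme from E. coli at 2 nM in 37.5 mM phosphate pH6.5 with ascorbate, methylene blue, catalase; compounds 10 μM–0.5 nM, 0.6% DMSO, pre-incubated 30 min RT, then 5 μM L-tryptophan for 30 min RT. NFK quantified by LCMS against d5-tryptophan; IC50 from duplicate four-parameter fit, means where repeated.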

Assay [2] concerns the target Recombinant human TDO comprising amino acids 19-407 (Homo sapiens (Human), UniProt P48775). The experiment in a line: TDO2 enzymatic assay (TDO inhibitory activity). It counts as biochemical. The note with it: 15 nM enzyme, 200 μM L-tryptophan, pH7, 30 min pre-incubation, NFK quantified by LCMS; mean values if measured multiple times; read-out: hTDO activity (IC50 in nM). Summed up:
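His-tagged enzyme (15 nM, E. coli-expressed) in pH 7 phosphate buffer with ascorbate, catalase, BSA, Tween 20, 0.6% DMSO; 30 min RT pre-incubation with compound (10 μM–0.5 nM), then 200 μM L-tryptophan for 30 min RT. N′-formylkynurenine quantified by LCMS against deuterated tryptophan; IC50 by four-parameter fit, duplicates.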

Broadly, the IC50 is the concentration at which inhibition is half-maximal.

Structures are written as SMILES.

Recombinant full-length human IDO1, sequence (P14902 whole entry): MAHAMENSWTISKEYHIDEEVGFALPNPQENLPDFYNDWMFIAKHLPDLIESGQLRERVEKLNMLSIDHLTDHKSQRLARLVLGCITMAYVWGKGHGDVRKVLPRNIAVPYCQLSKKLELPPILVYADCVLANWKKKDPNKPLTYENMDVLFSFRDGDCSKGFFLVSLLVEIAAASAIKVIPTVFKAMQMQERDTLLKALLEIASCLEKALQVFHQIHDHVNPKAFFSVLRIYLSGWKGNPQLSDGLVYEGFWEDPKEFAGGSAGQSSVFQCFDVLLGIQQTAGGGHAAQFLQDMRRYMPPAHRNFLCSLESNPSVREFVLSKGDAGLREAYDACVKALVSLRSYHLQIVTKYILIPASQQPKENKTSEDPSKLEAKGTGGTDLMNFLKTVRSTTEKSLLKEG
Recombinant human TDO comprising amino acids 19-407, sequence (P48775 19-406 limits assumed): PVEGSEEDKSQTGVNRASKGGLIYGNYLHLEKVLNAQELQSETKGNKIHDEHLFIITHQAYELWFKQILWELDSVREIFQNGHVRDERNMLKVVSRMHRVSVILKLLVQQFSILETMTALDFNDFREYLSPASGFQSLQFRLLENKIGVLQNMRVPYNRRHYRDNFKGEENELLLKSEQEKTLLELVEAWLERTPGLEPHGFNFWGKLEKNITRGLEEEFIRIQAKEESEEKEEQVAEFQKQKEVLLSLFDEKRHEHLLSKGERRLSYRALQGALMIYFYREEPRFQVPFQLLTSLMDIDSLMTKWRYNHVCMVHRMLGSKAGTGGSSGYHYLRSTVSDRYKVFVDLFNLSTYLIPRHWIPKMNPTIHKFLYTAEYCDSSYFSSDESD

With `CCc1sc2cncn2c1[C@@H](O)C1CCCCC1` [Example 96a, (S)-Cyclohexyl-(2-ethyl-imidazo[5,1-b]thiazol-3-yl)-methanol], the IC50 was 5.32 nM in assay [1] and 20 nM in assay [2].
Take `C=Cc1sc2cncn2c1C(O)CC1CCCCC1` (stereo not shown) [Example 97, 2-Cyclohexyl-1-(2-vinyl-imidazo[5,1-b]thiazol-3-yl)-ethanol]: the IC50 in assay [1] was determined as 10.5 nM; in assay [2], 62.6 nM.
For `CCc1sc2cncn2c1[C@@H](O)CC1CCCCC1` [Example 100a, (S)-2-Cyclohexyl-1-(2-ethyl-imidazo[5,1-b]thiazol-3-yl)-ethanol] the same measures were 7.82 nM and 202 nM.
For `CCc1sc2cncn2c1[C@H](O)CC1CCCCC1` [Example 100b, (R)-2-Cyclohexyl-1-(2-ethyl-imidazo[5,1-b]thiazol-3-yl)-ethanol] the same measures were 1190 nM and 9950 nM.
In the same order, the values of `OC(CC1CCC2CCCCC2C1)c1c(C2CC2)sc2cncn12` (stereo not shown) [Example 101, 1-(2-Cyclopropyl-imidazo[5,1-b]thiazol-3-yl)-2-(decahydro-naphthalen-2-yl)-ethanol] are 485 nM and 1790 nM.
In the case of `OC(CC1CCCC(C(F)(F)F)C1)c1c(C2CC2)sc2cncn12` (stereo not shown) [Example 102, 1-(2-Cyclopropyl-imidazo[5,1-b]thiazol-3-yl)-2-(3-trifluoromethyl-cyclohexyl)-ethanol], the IC50 was 87.6 nM in assay [1] and 818 nM in assay [2].
Regarding `OC(c1c(C2CC2)sc2cncn12)C1CCCC(C(F)(F)F)C1` (stereo not shown) [Example 104, (2-Cyclopropyl-imidazo[5,1-b]thiazol-3-yl)-(3-trifluoromethyl-cyclohexyl)-methanol], the IC50 in assay [1] came out at 75.7 nM; in assay [2], 1080 nM.
As to `CC1(C)CCCC(CC(O)c2c(C3CC3)sc3cncn23)C1` (stereo not shown) [Example 106, 1-(2-Cyclopropyl-imidazo[5,1-b]thiazol-3-yl)-2-(3,3-dimethyl-cyclohexyl)-ethanol], the results for the IC50 in assay [1] and in assay [2] were 85.1 nM and 546 nM, respectively.
For `Cc1sc2cncn2c1C(O)CC1CCC(c2ccccc2)C1` (stereo not shown) [Example 107, 1-(2-Methyl-imidazo[5,1-b]thiazol-3-yl)-2-(3-phenyl-cyclopentyl)-ethanol], the IC50 in assay [1] was found to be 167 nM; in assay [2], 1890 nM.
Take `CC1(C)CCC(C(O)c2c(C(F)(F)F)sc3cncn23)C1` (stereo not shown) [Example 108, (3,3-Dimethyl-cyclopentyl)-(2-trifluoromethyl-imidazo[5,1-b]thiazol-3-yl)-methanol]: the IC50 in assay [1] is 56.7 nM; in assay [2], 922 nM.
For `OC(CC1CCC(c2ccccc2)C1)c1c(C(F)(F)F)sc2cncn12` (stereo not shown) [Example 112, 2-(3-Phenyl-cyclopentyl)-1-(2-trifluoromethyl-imidazo[5,1-b]thiazol-3-yl)-ethanol] the same measures were 666 nM and above 10200 nM.
As to `COC1CCCC(CC(O)c2c(C3CC3)sc3cncn23)C1` (stereo not shown) [Example 114, 1-(2-Cyclopropyl-imidazo[5,1-b]thiazol-3-yl)-2-(3-methoxy-cyclohexyl)-ethanol], the IC50 is 40.5 nM in assay [1] and 1830 nM in assay [2].
In the same order, the values of `CC1CCC(C(O)c2c(C(F)(F)F)sc3cncn23)C1` (stereo not shown) [Example 116, (3-Methyl-cyclopentyl)-(2-trifluoromethyl-imidazo[5,1-b]thiazol-3-yl)-methanol] are 45.5 nM and 701 nM.
In the case of `CC1CCCCC1CC(O)c1c(C(F)(F)F)sc2cncn12` (stereo not shown) [Example 117, 2-(2-Methyl-cyclohexyl)-1-(2-trifluoromethyl-imidazo[5,1-b]thiazol-3-yl)-ethanol], the figures for the IC50 in assay [1] and in assay [2] were 165 nM and 2680 nM, respectively.
Take `CC1CCCC1C(O)c1c(C(F)(F)F)sc2cncn12` (stereo not shown) [Example 119, (2-Methyl-cyclopentyl)-(2-trifluoromethyl-imidazo[5,1-b]thiazol-3-yl)-methanol]: the results for the concentration for half-maximal inhibition (IC50) in assay [1] and in assay [2] were 191 nM and 187 nM, respectively.
In the same order, the values of `CC1CC(C)(C)CC1C(O)c1c(C2CC2)sc2cncn12` (stereo not shown) [Example 120, (2-Cyclopropyl-imidazo[5,1-b]thiazol-3-yl)-(2,4,4-trimethyl-cyclopentyl)-methanol] are 172 nM and 247 nM.
As for `CC1(C)CCC(CC(O)c2c(C(F)(F)F)sc3cncn23)C1` (stereo not shown) [Example 121, 2-(3,3-Dimethyl-cyclopentyl)-1-(2-trifluoromethyl-imidazo[5,1-b]thiazol-3-yl)-ethanol], the IC50 in assay [1] worked out at 313 nM; in assay [2], 8490 nM.
Regarding `CC1CCCC(CC(O)c2c(C(F)(F)F)sc3cncn23)C1` (stereo not shown) [Example 122, 2-(3-Methyl-cyclohexyl)-1-(2-trifluoromethyl-imidazo[5,1-b]thiazol-3-yl)-ethanol], the IC50 in assay [1] amounted to 205 nM; in assay [2], 3810 nM.
In the case of `CCC1CCCC1C(O)c1c(C2CC2)sc2cncn12` (stereo not shown) [Example 123, (2-Cyclopropyl-imidazo[5,1-b]thiazol-3-yl)-(2-ethyl-cyclopentyl)-methanol], the IC50 was determined as 29.4 nM in assay [1] and 228 nM in assay [2].
Turning to `OC(c1c(C2CC2)sc2cncn12)C1CC2CCCC2C1` (stereo not shown) [Example 133, (2-Cyclopropyl-imidazo[5,1-b]thiazol-3-yl)-(octahydro-pentalen-2-yl)-methanol], the IC50 came out at 7.07 nM in assay [1] and 259 nM in assay [2].
As for `OC(CC1CCCC1c1ccccc1)c1c(C2CC2)sc2cncn12` (stereo not shown) [Example 135, 1-(2-Cyclopropyl-imidazo[5,1-b]thiazol-3-yl)-2-(2-phenyl-cyclopentyl)-ethanol], the IC50 in assay [1] was 139 nM; in assay [2], 3770 nM.
Turning to `CC(C)C1(C)CCC(C(O)c2c(C3CC3)sc3cncn23)C1` (stereo not shown) [Example 136, (2-Cyclopropyl-imidazo[5,1-b]thiazol-3-yl)-(3-isopropyl-3-methyl-cyclopentyl)-methanol], the IC50 stood at 33.2 nM in assay [1] and 579 nM in assay [2].
In the same order, the values of `CC1(C)CCC(C)(C(O)c2c(C3CC3)sc3cncn23)C1` (stereo not shown) [Example 139, (2-Cyclopropyl-imidazo[5,1-b]thiazol-3-yl)-(1,3,3-trimethyl-cyclopentyl)-methanol] are 18.7 nM and 151 nM.
On to `Cc1sc2cncn2c1[C@@H](O)C1(C)CCCC1` [Example 140a, (S)-(1-Methyl-cyclopentyl)-(2-methyl-imidazo[5,1-b]thiazol-3-yl)-methanol], for which the figures for the IC50 in assay [1] and in assay [2] were 23.9 nM and 15.8 nM, respectively.
For `Cc1sc2cncn2c1C(O)C1CCC(C)(C)C1` (stereo not shown) [Example 141, (3,3-Dimethyl-cyclopentyl)-(2-methyl-imidazo[5,1-b]thiazol-3-yl)-methanol] the same measures were 81.2 nM and 412 nM.
Take `CC[C@H](C)c1sc2cncn2c1C(O)C1CCCCC1` (stereo partly drawn) [Example 185, [2-((S)-sec-Butyl)-imidazo[5,1-b]thiazol-3-yl]-cyclohexyl-methanol]: the IC50 came out at 172 nM in assay [1] and 962 nM in assay [2].

Values taken from patent US11267824B2, “Inhibitors of indoleamine 2,3-dioxygenase and/or tryptophan 2,3-dioxygenase” (IDORSIA PHARMACEUTICALS LTD, priority 2017, dated 2022).
